From patent US20080220066A1 (HENDERSON MORLEY PLC, priority 2005, published 2008)
Converted amounts (≈) assume the structure as drawn. “And” between values parts separate entries of the source, which are not always exact repeats. Equal values may be shown once. Read-outs that look alike come from different tables or passages of the source.

What was measured:
[1] = Description: Permeation experiments were carried out using all glass Franz-type cells incorporating callous plantar skin between a donor and receptor phase. Callous cuttings of approximately 0.6 cm diameter were required to fit the customised ‘franz’ cells used. Consequently, an in vitro permeation study was conducted that used 5 cells per gel treatment, with no more than a total of 15 cells being run simultaneously. […] An infinite dose of gel (˜1 g) was added to each donor compartment via syringe and PEG400, being used as a receptor phase in each, thereby enabling adequate ‘sink’ conditions, limiting hydrodynamic boundary effects and tissue swelling effects. The applied gel was occluded with glass cover slips and the cells stirred in a thermostatically controlled water bath, maintaining the skin temperature at 32° C. […] A total of five replicates were carried our for each gel. All samples were immediately analysed by HPLC.
The breakthrough time was taken from the point at which permeant was first detected in the receptor phase (dependent on the MDL for each permeant). Lag times were calculated by extrapolating the linear section of the cumulative amount permeated (steady state flux) to the X-axis (time).

[2] = test system: Herpes simplex virus (HSV); assay: HSV standard plaque inhibition assay; type: cell-based
Source text: Using Herpes simplex virus (HSV), 50% plaque inhibitory dose (1D50) were established using the standard plaque inhibition assay.

[3] = test system: Herpes simplex virus (HSV); assay: HSV virus yield (infectious virus particle production); type: cell-based; settings: solvent as listed per compound; Torasemide at 90 μg/ml
[4] = for Flux: Q24 divided by 24
[5] = test system: Varicella Zoster Virus (VZV)
MRC5 cells [6] = settings: uninfected cells; drug(s) at VZV ID 50 concentrations
physchem = settings: 32 °C, aqueous with cosolvent or surfactant or cyclodextrin, thermodynamic from solid
MRC5 cells [7] = assay: MRC5 cell replication; settings: Frusemide 1.0 mg/ml; Digoxin 0.05 μg/ml; both at their VZV ID50 concentrations
MRC5 cells [8] = assay: MRC5 cell morphology / tolerance; settings: Frusemide 1.0 mg/ml; Digoxin 0.05 ug/ml; combined dosage at individual ID 50; 72 hours
[9] = test system: Varicella Zoster Virus (VZV); assay: microbe, parasite or virus in culture; settings: Human alphaherpesvirus 3, MRC5, read-out: Digoxin IC50
Adenovirus = assay: 50% plaque inhibitory concentration, Adenovirus; settings: unidentified adenovirus, A549, read-out: Digoxin IC50
Cytomegalovirus = assay: 50% plaque inhibitory concentration, Cytomegalovirus; settings: Human betaherpesvirus 5, MRC5, read-out: Digoxin IC50
[10] = Saturated solubility in solvents and co-solvent mixes at 32° C
[11] = ‘Max’ Furosemide Gel Formulation

SMILES: C[C@H]1O[C@@H](O[C@H]2[C@@H](O)C[C@H](O[C@H]3[C@@H](O)C[C@H](O[C@H]4CC[C@@]5(C)[C@H](CC[C@@H]6[C@@H]5C[C@@H](O)[C@]5(C)[C@@H](C7=CC(=O)OC7)CC[C@]65O)C4)O[C@@H]3C)O[C@@H]2C)C[C@H](O)[C@@H]1O [Digoxin]
- Lag time ([1]; 40:40:20 Prototype gel): 100 h
- Permeation co-efficient ([1]; 40:40:20 Prototype gel): 1.1 × 10^−3 cmhr^−1
- Steady state flux ([1]; 40:40:20 Prototype gel): 1.14 ± 0.28 μc cm^−2hr^−1
- Breakthrough time ([1]; Dig/Fur Ampule Gel Formulation): ~24 h
- Lag time ([1]; Dig/Fur Ampule Gel Formulation): 82 h
- Steady state flux ([1]; Dig/Fur Ampule Gel Formulation): 0.069 μc cm^−2hr^−1
- reduction of amount permeated, prototype versus ‘Max’ Digoxin gel ([1]; at 144 hours): 3.36 fold
- steady state of flux ([1]; prototype gel): 1.14±0.28 μg cm^−2 hr^−1
- amount permeated ([1]; prototype gel, at 144 hours): 30 μg cm^−2
- Lag time ([1]; ‘Max’ Digoxin Gel Formulation): 18 h
- Steady state flux ([1]; ‘Max’ Digoxin Gel Formulation): 1.015 μc cm^−2hr^−1
- Breakthrough time ([1]; ‘Max’ Digoxin Gel Formulation (50:40:10, 8% HPC, pH 5)): ~1 h
- steady state of flux ([1]; ‘Max’ Digoxin gel formulation): 1.015 μg cm^−2 hr^−1
- amount permeated ([1]; ‘Max’ Digoxin gel, at 144 hours): 101 μg cm^−2
- Lag time [1, 11]: 68 h
- Steady state flux [1, 11]: 0.455 μc cm^−2hr^−1
- Breakthrough time ([1]; ‘Max’ Furosemide Gel Formulation (50:20:20:10, 8% HPC, pH 5)): ~12 h
- ICVT activity [2]: potent ICVT activity
- ID50 [2]: 60 ng per ml
- comparative ‘ICVT-ivities’ [2]: as effective as Lanoxin
- IC50 ([2]; BHK-21, read-out: Digoxin IC50): 0.03 µg/mL (≈ 0.0384 µM)
- IC50 ([2]; MRC5, read-out: Digoxin IC50): 0.02 ± 0.0075 µg/mL (≈ 0.0256 µM)
- IC50 ([2]; Vero, read-out: Digoxin IC50): 0.06 µg/mL (≈ 0.0768 µM)
- HSV yield [3]: HSV yield reduced
- maximum concentrations observed in the receptor phase ([4]; 40:40:20 gels): 42.47 µg/mL
- Release date ([4]; Ampule Formulation): 8.1 μg cm^−2 h^0.5
- Q24 ([4]; Ampule Formulation (8% HPC)): 34 μg cm^−2
- Flux ([4]; Ampule Formulation): 1.4 μg cm^−2 h^−1
- % applied dose ([4]; Gel 1:1, pH 7): 1.6%
- Release Rate ([4]; Gel 1:1, pH 7): 3.48 μg cm^−2 h^0.5
- Flux ([4]; Gel 1:1, pH 7): 0.59 μg cm^−2 h^−1
- Q24 ([4]; Gel 1:1, prototype 40:40:20 mix, pH 7, 24 h): 14.07 μg cm^−2
- Q24 ([4]; Gel 14:1 (F:D), prototype 40:40:20 mix, […] 981NF, pH 5, 24 h): 42.47 μg cm^−2
- Flux ([4]; Gel 14:1, pH 5): 1.77 μg cm^−2 h^−1
- % applied dose ([4]; Gel 14:1, pH 5, assuming 2 g of gel in donor): 4.0%
- Release Rate ([4]; Gel 14:1, pH 5, gradient of square root of time plot): 10.18 μg cm^−2 h^0.5
- % applied dose ([4]; Gel 14:1, pH 7): 1.6%
- Flux ([4]; Gel 14:1, pH 7): 0.73 μg cm^−2 h^−1
- % applied dose ([4]; Gel 14:1, pH 9): 0.1%
- Flux ([4]; Gel 14:1, pH 9): 0.14 μg cm^−2 h^−1
- Q24 ([4]; Gel 14:1, prototype 40:40:20 mix, pH 7, 24 h): 17.62 μg cm^−2
- Q24 ([4]; Gel 14:1, prototype 40:40:20 mix, pH 9, 24 h): 3.34 μg cm^−2
- Release date ([4]; HPC Formulation): 245 μg cm^−2 h^0.5 and 243 μg cm^−2 h^0.5
- Q24 ([4]; HPC Formulation (revised 50:40:10 gel, 8% HPC, pH 5, 14:1)): 934 μg cm^−2
- Flux ([4]; HPC Formulation): 39 μg cm^−2 h^−1
- Release date ([4]; Ultrez Formulation): 274 μg cm^−2 h^0.5
- Q24 ([4]; Ultrez Formulation (revised 50:40:10 gel, […] Ultrez, pH 5, 14:1)): 1138 μg cm^−2
- Flux ([4]; Ultrez Formulation): 45 μg cm^−2 h^−1
- reduction of release rate, 1:1 Gel versus 1:14 Gel ([4]; pH 7): 1.2 fold
- VZV plaques ([5]; Digoxin 0.025 ug/ml, HIGH MOI): TNTC
- VZV plaques ([5]; Digoxin 0.025 ug/ml, INTERMEDIATE MOI): TNTC
- VZV plaques ([5]; Digoxin 0.025 ug/ml, LOW MOI, control 61): 55^
- VZV plaques ([5]; Digoxin 0.050 ug/ml, HIGH MOI): TNTC
- VZV plaques ([5]; Digoxin 0.050 ug/ml, INTERMEDIATE MOI): TNTC
- VZV plaques ([5]; Digoxin 0.050 ug/ml, LOW MOI, control 61): 21^3
- VZV plaques ([5]; Digoxin 0.100 ug/ml, HIGH MOI): 0^4
- VZV plaques ([5]; Digoxin 0.100 ug/ml, INTERMEDIATE MOI): 0^4
- VZV plaques ([5]; Digoxin 0.100 ug/ml, LOW MOI, control 61): 0^4
- VZV plaque formation inhibited by ([5]; Frusemide at 1.0 mg/ml, Digoxin at 0.05 ug/ml): 50%
- VZV plaques ([5]; High MOI (100 × Low), drug(s) at IC50): TNTC
- VZV plaques ([5]; Intermediate MOI (10 × Low), drug(s) at IC50): TNTC
- VZV plaques ([5]; Low MOI, drug(s) at IC50, Control 61): 21 and 21^5
- VZV plaque formation inhibited by ([5]; each at respective IC50, Low MOI): about 50%
- Virus particles per cell (feline herpesvirus; each drug at its IC50, alone or both combined, No Drug 50): 0.75
- production of infectious virus reduced by (feline herpesvirus; each drug at its IC50, individually or in combination): 98.5%
- remaining low level of virus replication (feline herpesvirus; each drug individually at its IC50): 0.5%
- MRC5 cell metabolism, MTT assay (MRC5 cells [6]): normal levels of metabolism
- solubility at 24 h (physchem): 433 µg/mL (≈ 554 µM)
- replication of uninfected MRC5 cells (MRC5 cells [7]): replicated to normal yields
- tolerance by MRC5 cells (morphology, replication) (MRC5 cells [8]): very well tolerated
- IC50 [9]: 0.02 ± 0.0075 µg/mL (≈ 0.0256 µM)
- IC50 (Adenovirus): 0.077 ± 0.022 µg/mL (≈ 0.0986 µM)
- IC50 (Cytomegalovirus): 0.02 ± 0.0075 µg/mL (≈ 0.0256 µM)
- solubility in water ([10]; 32° C): relatively insoluble in water
- solubility at 24 h ([10]; 32 °C, organic solvent or mixture, thermodynamic from solid): 6270 µg/mL (≈ 8020 µM)
- number of moles in saturated solution ([10]; 40:40:20 co-solvents mix): 0.55 μmol cm^−3
- saturation limit ([10]; 40:40:20 co-solvents mix): 433 μg cm^−3
- increase in solubility, second versus first co-solvent mix ([10]; 50:40:10 versus 40:40:20): −15 fold
- solubility in each individual solvent ([10]; ethanol, propylene glycol, PEG400, water, 32° C): highest solubility in ethanol and propylene glycol with relatively low solubility in PEG400 and water
